For 16 compounds, IC50 results are on record in patent US9416143B2, “Griseofulvin derivatives” (PIERRE FABRE MEDICAMENT, priority 2012, dated 2016).

What all share (type): cell-based
Assay [1] has as its system HCC-1937 line (primary ductam breast carcinoma cell line). Briefly: Cell proliferation (ATPLite) on HCC-1937 line. The following applies: read 48 hours after treatment. As for the experimental part:
(§1) The lines N1E115 (ATCC, CRL2263), MDA-MB-231 (ATCC, HTB26) and HSC-1 (Health Science Research Resources Bank, JCRB1015) were cultured in DMEM medium (Dulbecco's Modified Eagle Medium) supplemented with 2 mM of L-Glutamine (Sigma, G7513) and 10% foetal calf serum (Hyclone, SH30109.03) or 20% for the HSC-1 cells. The HCC-1937 (ATCC, CRL2336) and A549 (ATCC, CCL185) lines were cultured in RPMI medium (Roswell Park Memorial Institute Medium) supplemented with 10% foetal calf serum and 2 mM of L-Glutamine. Finally, the SCC114 (DSMZ, ACC662) line was cultured in MEM medium (Minimum Essential Medium Eagle) supplemented with 10% foetal calf serum and 2 mM of L-Glutamine. Initially, in 96-well plates (Perkin Elmer, 6005668), the cells were seeded in their respective culture media with 750 cells per well for N1E115; 1000 cells per well for SCC114 and A549; 2000 cells per well for HCC-1937 and HSC-1; 2500 cells per well for MDA-MB-231. Cascade dilution of each compound was performed in dimethylsulfoxide (DMSO) (Sigma, D8418) from 10 mM stock solutions in 100% DMSO. Each of the dilutions was added to the cells 24 hours after seeding. Under these conditions the final solvent concentration was 0.1% DMSO. Reading of cell proliferation was conducted 72 hours after addition of products with the ATPLite kit (Perkin Elmer, 6016947) and following the manufacturer's directions except in the case of the HCC-1937 line for which this reading was carried out 48 hours after treatment. Analysis of proliferation results was performed by comparing with conditions in which solely the vehicle was added to the cells. The dose-response curves obtained were analysed using Prism 4.03 software (GraphPad Software Inc.) to determine the concentration of each compound allowing 50% inhibition of cell proliferation (IC50).
(§2) As examples, the cytotoxic properties of some compounds of the invention evaluated on the lines A549 (lung cancer cell line), MDA-MB-231 line (mammary adenocarcinoma cell line), N1E115 (mouse brain neuroblastoma cell line), HCC-1937 line (primary ductam breast carcinoma cell line), HSC-1 (cutaneous squamous carcinoma cell line) and SCC114 line (oral squamous carcinoma cell line) are reported in Table 1, as compared with griseofulvin used as control product. The concentration values are expressed in micromolar units (μM).

Assay [2] has as its system HSC-1 (cutaneous squamous carcinoma cell line). Briefly: Cell proliferation (ATPLite) on HSC-1 line. The note with it: 50% inhibition of cell proliferation, read 72 hours after addition. On the procedure:
as §1, §2
In general terms: In ATP-based viability assays light output follows the ATP content of the culture.

The test system of assay [3] is MDA-MB-231 line (mammary adenocarcinoma cell line). Briefly: Cell proliferation (ATPLite) on MDA-MB-231 line. The following applies: read 72 hours after addition. As for the experimental part:
as §1, §2

The subject of assay [4] is SCC114 line (oral squamous carcinoma cell line). Briefly: Cell proliferation (ATPLite) on SCC114 line. The note with it: read 72 hours after addition. As for the experimental part:
as §1, §2

Assay [5] has as its system A549 (lung cancer cell line). Briefly: Cell proliferation (ATPLite) on A549 line. The note with it: read 72 hours after addition. As for the experimental part: as §1, §2
The mark [6] stands for this setting: 50% inhibition of cell proliferation, read-out: IC50 (μM) HCC1937.
Setting [7] is: 50% inhibition of cell proliferation.
Where [8] appears, read: Homo sapiens, HCC1937, 50% inhibition of cell proliferation.
[9] abbreviates: Homo sapiens, MDA-MB-231, 50% inhibition of cell proliferation.
Where [10] appears, read: SCC114, 50% inhibition of cell proliferation.

SMILES strings stand for the structures. Where two headings read alike, the source gives them in different places.

On to `COc1cc(OC)c2c(c1Cl)O[C@]1(C2=O)C2=C(C[C@](CCCCO)(c3ccccc3)O2)C(=O)C[C@H]1C` [compound 14, (2 S,2′S,6R)-7′-chloro-2-(4-hydroxybutyl)-4′,6′-dimethoxy-6-methyl-2-phenyl-5,6-dihydro-2H,3′H-2,7′-spirobi[benzofuran]-3′,4(3H)-dione], for which the IC50 in assay [1] (setting [6]) is over 10 µM; in assay [2], 0.86 µM; in assay [3] (setting [7]) it was 0.46 µM; in assay [4] (setting [7]), 0.74 µM; in assay [5] (setting [7]), 0.44 µM.
In the case of `COc1cc(OC)c2c(c1Cl)O[C@]1(C2=O)C2=C(C[C@H](c3ccc(F)cc3)O2)C(=O)C[C@H]1C` [compound 34, (2R,2′S,6R)-7′-chloro-2-(4-fluorophenyl)-4′,6′-dimethoxy-6-methyl-5,6-dihydro-2H,3′H-2,7′-spirobi[benzofuran]-3′,4(3H)-dione], the IC50 in assay [1] (setting [6]) was over 10 µM; in assay [2], 0.45 µM; in assay [3] (setting [7]) it was 0.18 µM; in assay [4] (setting [7]), 0.21 µM; in assay [5] (setting [7]), 0.072 µM.
Consider `COc1cc(OC)c2c(c1Cl)O[C@]1(C2=O)C2=C(C[C@@H](c3ccc(F)cc3)O2)C(=O)C[C@H]1C` [compound 35, (2S,2′S,6R)-7′-chloro-2-(4-fluorophenyl)-4′,6′-dimethoxy-6-methyl-5,6-dihydro-2H,3′H-2,7′-spirobi[benzofuran]-3′,4(3H)-dione], for which the IC50 is over 10 µM in assay [1] (setting [6]), 0.38 µM in assay [2], 0.25 µM in assay [3] (setting [7]) and 0.17 µM in assay [4] (setting [7]).
The like results for `COc1cc(OC)c2c(c1Cl)O[C@]1(C2=O)C2=C(C[C@H](c3ccccc3F)O2)C(=O)C[C@H]1C` [compound 37, (2R,2′S,6R)-7′-chloro-2-(2-fluorophenyl)-4′,6′-dimethoxy-6-methyl-5,6-dihydro-2H,3′H-2,7′-spirobi[benzofuran]-3′,4(3H)-dione] were, in that order, over 10 µM, 1.4 µM, 0.27 µM and 0.47 µM.
`COc1cc(OC)c2c(c1Cl)O[C@@]1(C=C([S+]([O-])Cc3ccccc3)C(=O)C[C@H]1C)C2=O` (stereo partly drawn) [compound 97, (1′S,6′R)-3′-(benzylsulfinyl)-7-chloro-4,6-dimethoxy-6′-methyl-3H-spiro[benzofuran-2,1′-cyclohex[2]ene]-3,4′-dione]: the values for the IC50 in assay [2] and in assay [4] (setting [7]) were 0.14 µM and 0.021 µM, respectively.
The like results for `COc1cc(OC)c2c(c1Cl)O[C@@]1(C=C(S(=O)(=O)c3ccccc3)C(=O)C[C@H]1C)C2=O` [compound 98, (1′S,6′R)-7-chloro-4,6-dimethoxy-6′-methyl-3′-(phenylsulfonyl)-3H-spiro[benzofuran-2,1′-cyclohex[2]ene]-3,4′-dione] were, in that order, 0.76 µM and 0.41 µM.
As for `COc1cc(OC)c2c(c1Cl)O[C@]1(C2=O)C(=O)c2c(nn(C)c2-c2ccccc2Cl)C[C@H]1C` [compound 115, (2S,6′R)-7-chloro-3′-(2-chlorophenyl)-4,6-dimethoxy-2′,6′-dimethyl-6′,7′-dihydro-3H-spiro[benzofuran-2,5′-indazole]-3,4′(2′H)-dione], the IC50 in assay [1] (setting [8]) is over 10 µM; in assay [2], 1.3 µM; in assay [3] (setting [9]), 0.64 µM; in assay [4] (setting [10]) it was 0.73 µM.
`COc1cc(OC)c2c(c1Cl)O[C@]1(C2=O)C(=O)c2c(nn(C)c2-c2ccccc2Cl)C[C@H]1C` [compound 126, (2S,3′R,6′R)-7-chloro-3′-(2-chlorophenyl)-4,6-dimethoxy-2′,6′-dimethyl-6′,7′-dihydro-3H-spiro[benzofuran-2,5′-indazole]-3,4′(2′H)-dione]: the IC50 in assay [2] amounted to 2.3 µM; in assay [4] (setting [7]), 0.73 µM.
With `COc1cc(OC)c2c(c1Cl)O[C@]1(C2=O)C(=O)c2c(nn(C)c2-c2ccccc2Br)C[C@H]1C` [compound 130, (2S,3′S,6′R)-7-chloro-3′-(2-bromophenyl)-4,6-dimethoxy-2′,6′-dimethyl-6′,7′-dihydro-3H-spiro[benzofuran-2,5′-indazole]-3,4′(2′H)-dione], the values for the IC50 in assay [2] and in assay [4] (setting [7]) were 0.25 µM and 0.14 µM, respectively.
Take `COc1cc(OC)c2c(c1Cl)O[C@]1(C2=O)C(=O)c2c(nn(C)c2-c2ccccc2C(F)(F)F)C[C@H]1C` [compound 135, (2S,3′S,6′R)-7-chloro-4,6-dimethoxy-2′,6′-dimethyl-3′-(2-(trifluoromethyl)phenyl)-6′,7′-dihydro-3H-spiro[benzofuran-2,5′-indazole]-3,4′(2′H)-dione]: the IC50 was 1.3 µM in assay [2] and 0.51 µM in assay [4] (setting [7]).
`COC(=O)c1cc(-c2ccc(F)cc2)c2c(n1)C[C@@H](C)[C@]1(Oc3c(Cl)c(OC)cc(OC)c3C1=O)C2=O` [compound 164, (2S,7′R)-methyl 7-chloro-4′-(4-fluorophenyl)-4,6-dimethoxy-7′-methyl-3,5′-dioxo-7′,8′-dihydro-3H,5′H-spiro[benzofuran-2,6′-quinoline]-2′-carboxylate]: the IC50 is over 10 µM in assay [1] (setting [8]); over 10 µM in assay [2]; 1.4 µM in assay [3] (setting [9]); 0.43 µM in assay [4] (setting [10]); 0.45 µM in assay [5] (Homo sapiens, A549, 50% inhibition of cell proliferation).
On to `COC(=O)C1=C[C@H](c2ccsc2)C2=C(C[C@@H](C)[C@]3(Oc4c(Cl)c(OC)cc(OC)c4C3=O)C2=O)N1` [compound 165, (2S,4′S,7′R)-methyl 7-chloro-4,6-dimethoxy-7′-methyl-3,5′-dioxo-4′-(thiophen-3-yl)-4′,5′,7′,8′-tetrahydro-1′H,3H-spiro[benzofuran-2,6′-quinoline]-2′-carboxylate], for which the IC50 was over 10 µM in assay [1] (setting [8]), 0.5 µM in assay [2], 0.17 µM in assay [3] (setting [9]) and 0.23 µM in assay [4] (setting [10]).
For `COc1cc(OC)c2c(c1Cl)O[C@]1(C2=O)C(N(C)CCN(C)c2ccccn2)=CC(=O)C[C@H]1C` [compound 205, (1′S,6′R)-7-chloro-4,6-dimethoxy-6′-methyl-2′-(methyl(2-(methyl(pyridin-2-yl)amino)ethyl)amino)-3H-spiro[benzofuran-2,1′-cyclohex[2]ene]-3,4′-dione], the IC50 in assay [2] is over 10 µM; in assay [4] (setting [7]) it was 0.62 µM; in assay [5] (setting [7]), 9.2 µM.
Turning to `COC(=O)c1cc(-c2ccsc2)c2c(n1)C[C@@H](C)[C@]1(Oc3c(Cl)c(OC)cc(OC)c3C1=O)C2O` (stereo partly drawn) [compound 255, (2S,7′R)-methyl 7-chloro-5′-hydroxy-4,6-dimethoxy-7′-methyl-3-oxo-4′-(thiophen-3-yl)-7′,8′-dihydro-3H,5′H-spiro[benzofuran-2,6′-quinoline]-2′-carboxylate], the IC50 was over 10 µM in assay [1] (setting [8]), 0.77 µM in assay [2], 0.22 µM in assay [3] (setting [9]) and 0.38 µM in assay [4] (setting [10]).
Regarding `COC(=O)c1cc(-c2ccc(F)cc2)c2c(n1)C[C@@H](C)[C@]1(Oc3c(Cl)c(OC)cc(OC)c3C1=O)C2O` (stereo partly drawn) [compound 256, (2S,7′R)-methyl 7-chloro-4′-(4-fluorophenyl)-5′-hydroxy-4,6-dimethoxy-7′-methyl-3-oxo-7′,8′-dihydro-3H,5′H-spiro[benzofuran-2,6′-quinoline]-2′-carboxylate], the IC50 in assay [1] (setting [8]) is over 10 µM; in assay [2], 0.84 µM; in assay [3] (setting [9]), 0.33 µM; in assay [4] (setting [10]) it was 0.51 µM.
The like results for `COc1cc(OC)c2c(c1Cl)O[C@]1(C2=O)C(O)c2c(-c3ccccc3)cc(C(=O)OC(C)C)nc2C[C@H]1C` (stereo partly drawn) [compound 257, (2S,7′R)-isopropyl 7-chloro-5′-hydroxy-4,6-dimethoxy-7′-methyl-3-oxo-4′-phenyl-7′,8′-dihydro-3H,5′H-spiro[benzofuran-2,6′-quinoline]-2′-carboxylate] were, in that order, over 10 µM, 2.4 µM, 0.43 µM and 0.51 µM.

For orientation: IC50 means the concentration needed to halve the response being measured.
